One assay concerns the target MTH1 (Homo sapiens, UniProt P36639). As to the kind of experiment: MTH1 enzymatic assay and IC50 value determination (malachite green, 96- and 384-well format). In kind it is biochemical. The conditions noted are these: hydrolysis of dGTP (100 μM), MTH1 6 nM, pyrophosphatase-coupled malachite green, 15 minutes at 22° C. The procedure, abridged: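 MTH1 (6 nM) hydrolysed dGTP (100 μM) for 15 min at 22 °C in Tris-acetate buffer with Mg2+, DTT, Tween 20 and excess pyrophosphatase, 1% DMSO. Pi detected with malachite green at 630 nm. IC50 from nonlinear 4-parameter fit of 11–12-point dilution series.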

The test system of another assay is cancer cell. Nature of the assay: Cell viability assay (resazurin). The class given is cell-based. The conditions noted are these: 72 h; 3 days with compound, resazurin fluorescence; cell line not named. The procedure: The utility of the compounds of the present invention can be illustrated, for example, by their activity in vitro in the cancer cell clonogenic and/or viability assay described below. The link between activity in tumor cell clonogenic assay and anti-tumor activity in the clinical setting has been well established in the art (e.g. see ref Silverstini et al Stem Cells 1993, 11(6), 258-35).
Cells are seeded into 96 well plates (1000-3000 cells/well) in DMEM GlutaMAX™ or other suitable media dependent on cell line and incubated overnight in 5% CO2, 37° C. Thereafter cells are treated with compound or vehicle and left in incubator for 3 days until staining with resazurin. Cells are incubated in resazurin (diluted in suitable media) at 37° C. for 2 hours before measuring the fluorescence (Ex544/Em590).
The compounds to be tested are nano-dispensed in 11 concentrations, directly in 384-well cell plates, with a final DMSO concentration <1%. Cells are seeded in cell plates, pre-dispensed with compounds, 50 μl/well (600-1200 cells/well). After 3 days culture in 5% CO2, 37° C., resazurin diluted in PBS is added, 10 μl/well, and cells are incubated 3 hours before measuring fluorescence (Ex544/Em590).
For orientation: Resazurin is reduced to fluorescent resorufin, in cell work by metabolically active cells.

For orientation: IC50 means the point on the concentration scale where inhibition reaches its midpoint.

As for `Cc1c(Cl)cccc1-c1cc(NCCc2cccc(NC(=O)NC(C)C)c2)nc(N)n1` [Example 82, 1-[3-(2-{[2-amino-6-(3-chloro-2-methylphenyl)pyrimidin-4-yl]amino}ethyl)phenyl]-3-(propan-2-yl)urea], the IC50 against MTH1 was less than 200 nM; in the assay with cancer cell it was less than 500 nM.

With `Cc1c(Cl)cccc1-c1cc(NCCc2cccc(NC(=O)OC(C)(C)C)c2)nc(N)n1` [Example 83, tert-butyl N-[3-(2-{[2-amino-6-(3-chloro-2-methylphenyl)pyrimidin-4-yl]amino}ethyl)phenyl]carbamate], the results for the IC50 against MTH1 and in the assay with cancer cell were less than 200 nM and less than 500 nM, respectively.

On to `Cc1c(Cl)cccc1-c1cc(NCCc2cccc(NC(=O)C3CC3)c2)nc(N)n1` [Example 84, N-[3-(2-{[2-amino-6-(3-chloro-2-methylphenyl)pyrimidin-4-yl]amino}ethyl)phenyl]cyclopropanecarboxamide], for which the IC50 on MTH1 was less than 200 nM; in the assay on cancer cell it was less than 500 nM.

As to `Cc1c(Cl)cccc1-c1cc(NCCc2cccc(NS(=O)(=O)CC(C)C)c2)nc(N)n1` [Example 85, N-[3-(2-{[2-amino-6-(3-chloro-2-methylphenyl)pyrimidin-4-yl]amino}ethyl)phenyl]-2-methylpropane-1-sulfonamide], the IC50 was less than 200 nM at MTH1 and less than 500 nM in the assay with cancer cell.

Take `Cc1c(Cl)cccc1-c1cc(NCCc2ccc(NS(=O)(=O)C(C)C)cc2)nc(N)n1` [Example 86, N-[4-(2-{[2-amino-6-(3-chloro-2-methylphenyl)pyrimidin-4-yl]amino}ethyl)phenyl]propane-2-sulfonamide]: the IC50 is less than 200 nM at MTH1 and less than 500 nM with cancer cell.

On to `Cc1c(Cl)cccc1-c1cc(NCCc2ccc(NS(=O)(=O)CC(C)C)cc2)nc(N)n1` [Example 87, N-[4-(2-{[2-amino-6-(3-chloro-2-methylphenyl)pyrimidin-4-yl]amino}ethyl)phenyl]-2-methylpropane-1-sulfonamide], for which the figures for the IC50 against MTH1 and with cancer cell were less than 200 nM and less than 500 nM, respectively.

As for `CNC(=O)c1ccc(CCNc2cc(-c3cccc(Cl)c3C)nc(N)n2)cc1` [Example 89, 4-[2-[[2-amino-6-(3-chloro-2-methyl-phenyl)pyrimidin-4-yl]amino]ethyl]-N-methyl-benzamide], the IC50 on MTH1 was less than 200 nM; in the assay with cancer cell it was less than 500 nM.

`Cc1c(Cl)cccc1-c1cc(NCCc2ccc(C(=O)N3CCCC3)cc2)nc(N)n1` [Example 90, [4-[2-[[2-amino-6-(3-chloro-2-methyl-phenyl)pyrimidin-4-yl]amino]ethyl]phenyl]-pyrrolidin-1-yl-methanone]: the IC50 at MTH1 was less than 200 nM; in the assay on cancer cell, less than 500 nM.

Take `Cc1c(Cl)cccc1-c1cc(NCCNc2ccc3c(c2)OCC(=O)N3)nc(N)n1` [Example 91, 7-[2-[[2-amino-6-(3-chloro-2-methyl-phenyl)pyrimidin-4-yl]amino]ethylamino]-4H-1,4-benzoxazin-3-one]: the IC50 on MTH1 is less than 200 nM; in the assay with cancer cell it was less than 500 nM.

Turning to `Cc1c(Cl)cccc1-c1cc(NCCNc2ccc3c(c2)N(C)C(=O)CO3)nc(N)n1` [Example 92, 6-[2-[[2-amino-6-(3-chloro-2-methyl-phenyl)pyrimidin-4-yl]amino]ethylamino]-4-methyl-1,4-benzoxazin-3-one], the figures for the IC50 at MTH1 and in the assay with cancer cell were less than 200 nM and less than 500 nM, respectively.

For the compound `Cc1c(Cl)cccc1-c1cc(NCCc2cccc([N+](=O)[O-])c2)nc(N)n1` [Example 95, 6-(3-chloro-2-methylphenyl)-4-N-[2-(3-nitrophenyl)ethyl]pyrimidine-2,4-diamine], the IC50 on MTH1 was less than 200 nM; with cancer cell, less than 500 nM.

On to `Cc1cccc(-c2cc(NCCc3ccc(S(N)(=O)=O)cc3)nc(N)n2)c1Cl` [Example 96, 4-[2-[[2-amino-6-(2-chloro-3-methyl-phenyl)pyrimidin-4-yl]amino]ethyl]benzenesulfonamide], for which the IC50 on MTH1 is less than 200 nM; in the assay on cancer cell, less than 500 nM.

`Nc1nc(NCCc2ccc(S(N)(=O)=O)cc2)cc(-c2cc(Cl)cc(Cl)c2Cl)n1` [Example 97, 4-[2-[[2-amino-6-(2,3,5-trichlorophenyl)pyrimidin-4-yl]amino]ethyl]benzenesulfonamide]: the figures for the IC50 at MTH1 and in the assay with cancer cell were less than 200 nM and less than 500 nM, respectively.

Turning to `Cc1nc2ccc(NCCNc3cc(-c4cccc(Cl)c4C)nc(N)n3)cc2s1` [Example 101, 6-(3-chloro-2-methyl-phenyl)-N4-[2-[(2-methyl-1,3-benzothiazol-6-yl)amino]ethyl]pyrimidine-2,4-diamine], the results for the IC50 against MTH1 and with cancer cell were less than 200 nM and less than 500 nM, respectively.

As for `CC1(C)Nc2cc(NCCNc3cc(-c4cccc(Cl)c4)nc(N)n3)ccc2OC1=O` [Example 103, 6-[2-[[2-amino-6-(3-chlorophenyl)pyrimidin-4-yl]amino]ethylamino]-3,3-dimethyl-4H-1,4-benzoxazin-2-one], the values for the IC50 on MTH1 and with cancer cell were less than 200 nM and less than 500 nM, respectively.

As for `CC1(C)Nc2cc(NCCNc3cc(-c4cccc(Cl)c4Cl)nc(N)n3)ccc2OC1=O` [Example 104, 6-[2-[[2-amino-6-(2,3-dichlorophenyl)pyrimidin-4-yl]amino]ethylamino]-3,3-dimethyl-4H-1,4-benzoxazin-2-one], the values for the IC50 against MTH1 and in the assay on cancer cell were less than 200 nM and less than 500 nM, respectively.

As for `Cc1c(Cl)cccc1-c1cc(NCCNc2cccc(S(C)(=O)=O)c2)nc(N)n1` [Example 105, 6-(3-chloro-2-methyl-phenyl)-N4-[2-(3-methylsulfonylanilino)ethyl]pyrimidine-2,4-diamine], the values for the IC50 against MTH1 and in the assay on cancer cell were less than 200 nM and less than 500 nM, respectively.

As for `CS(=O)(=O)c1cccc(NCCNc2cc(-c3cccc(Cl)c3Cl)nc(N)n2)c1` [Example 106, 6-(2,3-dichlorophenyl)-N4-[2-(3-methylsulfonylanilino)ethyl]pyrimidine-2,4-diamine], the IC50 against MTH1 is less than 200 nM; in the assay with cancer cell it was less than 500 nM.

In the case of `Cc1c(Cl)cccc1-c1cc(NCCc2ccc(C(N)=NO)cc2)nc(N)n1` [Example 107, 4-[2-[[2-amino-6-(3-chloro-2-methyl-phenyl)pyrimidin-4-yl]amino]ethyl]-N′-hydroxy-benzamidine], the IC50 against MTH1 is less than 200 nM; with cancer cell it was less than 500 nM.

For the compound `Cc1c(Cl)cccc1-c1cc(NCCc2ccc(C(=O)N3CCOCC3)cc2)nc(N)n1` [Example 108, [4-[2-[[2-amino-6-(3-chloro-2-methyl-phenyl)pyrimidin-4-yl]amino]ethyl]phenyl]-morpholino-methanone], the results for the IC50 on MTH1 and with cancer cell were less than 200 nM and less than 500 nM, respectively.

Consider `Cc1c(Cl)cc(Cl)cc1-c1cc(NCCc2ccc(C(=O)N3CCOCC3)cc2)nc(N)n1` [Example 109, [4-[2-[[2-amino-6-(3,5-dichloro-2-methyl-phenyl)pyrimidin-4-yl]amino]ethyl]phenyl]-morpholino-methanone], for which the IC50 is less than 200 nM at MTH1 and less than 500 nM in the assay on cancer cell.

For `Cc1c(Cl)cccc1-c1cc(NCCCNc2cccc(S(C)(=O)=O)c2)nc(N)n1` [Example 110, 6-(3-chloro-2-methyl-phenyl)-N4-[3-(3-methylsulfonylanilino)propyl]pyrimidine-2,4-diamine], the figures for the IC50 against MTH1 and with cancer cell were less than 200 nM and less than 500 nM, respectively.

Turning to `Cc1c(Cl)cccc1-c1cc(NCCc2ccc(C(N)=S)cc2)nc(N)n1` [Example 111, 4-[2-[[2-amino-6-(3-chloro-2-methyl-phenyl)pyrimidin-4-yl]amino]ethyl]benzenecarbothioamide], the IC50 against MTH1 was less than 200 nM; in the assay on cancer cell, less than 500 nM.

For `CCNC(=O)Nc1ccc(CCNc2cc(-c3cccc(Cl)c3C)nc(N)n2)cc1` [Example 112, 1-[4-[2-[[2-amino-6-(3-chloro-2-methyl-phenyl)pyrimidin-4-yl]amino]ethyl]phenyl]-3-ethyl-urea], the IC50 at MTH1 was less than 200 nM; in the assay on cancer cell, less than 500 nM.

As to `Cc1c(Cl)cccc1-c1cc(NCCc2ccc(NC(=O)NC(C)(C)C)cc2)nc(N)n1` [Example 113, 1-[4-[2-[[2-amino-6-(3-chloro-2-methyl-phenyl)pyrimidin-4-yl]amino]ethyl]phenyl]-3-tert-butyl-urea], the IC50 against MTH1 is less than 200 nM; in the assay on cancer cell it was less than 500 nM.

As to `C=CCNC(=O)Nc1ccc(CCNc2cc(-c3cccc(Cl)c3C)nc(N)n2)cc1` [Example 114, 1-allyl-3-[4-[2-[[2-amino-6-(3-chloro-2-methyl-phenyl)pyrimidin-4-yl]amino]ethyl]phenyl]urea], the IC50 was less than 200 nM against MTH1 and less than 500 nM in the assay with cancer cell.

For `CCOC(=O)NC(=O)Nc1ccc(CCNc2cc(-c3cccc(Cl)c3C)nc(N)n2)cc1` [Example 115, ethyl N-[[4-[2-[[2-amino-6-(3-chloro-2-methyl-phenyl)pyrimidin-4-yl]amino]ethyl]phenyl]carbamoyl]carbamate], the values for the concentration for half-maximal inhibition (IC50) at MTH1 and with cancer cell were less than 200 nM and less than 500 nM, respectively.

With `CCC(C)NC(=O)Nc1ccc(CCNc2cc(-c3cccc(Cl)c3C)nc(N)n2)cc1` (centres unmarked) [Example 116, 1-[4-[2-[[2-amino-6-(3-chloro-2-methyl-phenyl)pyrimidin-4-yl]amino]ethyl]phenyl]-3-sec-butyl-urea], the IC50 against MTH1 was less than 200 nM; with cancer cell it was less than 500 nM.

For the origin of these results see patent US10179790B2 (THOMAS HELLEDAYS STIFTELSE FOR MEDICINSK FORSKNING, priority 2014, dated 2019).
